# Legend:
# [1] = test system: Human washed platelets; test: Platelet immunofluorescence analysis (subcellular localization); assay type: cell-based; details: activated platelets in presence of inhibitor
# Protocol: Washed platelets (50 μl of […] in Tyrode's albumin buffer) were incubated with 1.9 μM of PTB domain constructs for 5 min at room temperature in the presence of 0.25 g/L fibrinogen. Aggregation was initiated by the addition of 10 μM TRAP. Reactions were incubated at room temperature unless otherwise indicated. Platelets were fixed with 0.4 mL of 3.7% formaldehyde in Phosphate Buffered Saline (PBS) for 30 min. Next, 20% goat serum was added to the fixed platelets, and 60% of the total fixed reaction was centrifuged using a Shandon cytospinner onto a Shandon coated cytoslide to achieve the appropriate platelet density for analysis. Slides were then washed twice with PBS for 10 min. Platelets were permeabilized with 0.5% Triton X-100 in PBS for 10 min and then blocked with 20% goat serum in PBS with 0.1% Triton X-100 for 1 h at room temperature. Platelets were washed 3 times with PBS with 0.1% Triton for 10 minutes and further incubated overnight with the anti-Dab2 antibody 1:100 (anti-p96; BD Transduction) in PBS with 0.1% Triton X-100 and 10% goat serum at 4° C. in a humidity chamber. Platelets were then washed and incubated with the anti-mouse Cy-3 conjugated goat antibody 1:250 and Alexa488 conjugated phalloidin (25 μg/mL) in PBS with 0.1% Triton X-100 and 10% goat serum for 2 h. Platelets were washed again and observed on an Olympus IX71 microscope using the Softworx Applied Precision software.
# Mean pixel intensity was determined for 400 platelets from four fields each for 3 min and 10 min of treatments by manually drawing circles around individual platelets using the 2D Polygon tool in the Softworx software. For each time point, a threshold of significant mean pixel intensity was defined for the experiment. The percentage of countable platelets to exceed the threshold was calculated for each field and the average of four fields was computed with standard deviation. The ratio of internalization:binding is the quotient of these averages for a treatment.
# [2] = test system: T1, Dab2 N-terminal phosphotyrosine binding domain (N-PTB, residues 1-241 of human Disabled-2), wild type
# T1 sequence: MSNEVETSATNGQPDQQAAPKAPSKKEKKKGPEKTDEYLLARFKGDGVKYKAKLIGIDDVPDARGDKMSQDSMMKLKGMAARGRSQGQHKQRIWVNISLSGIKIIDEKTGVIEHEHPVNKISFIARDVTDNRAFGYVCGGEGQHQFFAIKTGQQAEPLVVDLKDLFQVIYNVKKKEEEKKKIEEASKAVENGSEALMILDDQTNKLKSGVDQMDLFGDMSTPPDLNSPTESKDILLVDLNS
# [3] = biological target: T2, N-PTB domain (Homo sapiens, UniProt P98082, A82R); test: Protein-lipid overlay competition assay; assay type: binding; details: pre-incubation with 10-fold excess of lipid
# T2 construct: The N-PTB domain (residues 1-241) cDNA construct was cloned into a pGEX6P1 vector; made in house; host or cells: E. coli Rosetta
# T2 sequence (P98082 1-241 A82R): T1 sequence
# Protocol: Membrane strips (SphingoStrips™) spotted with 100 pmol of sphingolipids were purchased from Echelon Research Laboratories. Membrane strips were incubated with 0.1 μg/ml of the Dab2 PTB domain or its mutants in 20 mM Tris-HCl (pH 8.0), 150 mM NaCl, 0.1% Tween-20 and 3% fatty acid-free bovine serum albumin overnight at 4° C. Following four washes with the same buffer, proteins bound to the membrane strips were probed with rabbit anti-GST antibody (Santa Cruz Biotech). Donkey anti rabbit-horse radish peroxidase (HRP) antibody was obtained from GE Healthcare. Detection was carried out using ECL reagent (Pierce). Also, lipid strips were prepared by spotting 1 μl of either sulfatides or PtdIns(4,5)P2 dissolved in chloroform:methanol:water (1:2:0.8 and 65:35:8, respectively) onto Hybond-C extra membranes (GE Healthcare) and protein binding was monitored as described above. Bound protein was quantified using the AlphaImager program and binding was calculated as a percentage of GST-PTB binding to 100 pmoles of spotted lipid.
# We next asked whether sulfatides and PtdIns(4,5)P2 compete with each other for binding to the N-PTB domain using a protein-lipid overlay competition assay. […] This observation was further confirmed by competing sulfatides and PtdIns(4,5)P2 for N-PTB domain binding using SPR. […]
compound,measurement,setting,value
"C=C1[C@@H](C)[C@H]2[C@H](Cc3ccccc3)NC(=O)[C@]23[C@H](OC(C)=O)/C=C/[C@@](C)(O)C(=O)[C@@H](C)C/C=C/[C@H]3[C@@H]1O [cytochalasin D, reference compound]",effect on N-PTB domain internalization,[1],completely blocked N-PTB domain internalization
thrombin,thrombin proteolysis of the N-PTB domain (FIG. 3B),[2],thrombin cleaved the N-PTB domain leaving a ˜25 kW protease-resistant product
"CN(C)CCCN1c2ccccc2Sc2ccc(Cl)cc21 [chlorpromazine, reference compound]",effect on N-PTB domain internalization,[1],inhibited
"CCCCCCCCCCCCCCCC(=O)OC[C@H](COP(=O)(O)O[C@@H]1[C@H](O)[C@H](OP(=O)(O)O)[C@@H](O)[C@H](O)[C@H]1O)OC(=O)CCCCCCCCCCCCCCC [PtdIns(3)P, phosphatidylinositol 3-phosphate]",competition with sulfatide for PTB binding,[3],did not compete
"phosphatidylinositol 4,5-bisphosphate [PtdIns(4,5)P2]",reduction of sulfatide binding of N-PTB domain,[3],at least 60%
